Results published in US12595267B2, “Preparation method for amide compound and application thereof in field of medicine” (Shanghai Synergy Pharmaceutical Sciences Co., Ltd., priority 2019, dated 2026).
Read-outs that look alike come from different tables or passages of the source.

What was measured:
[1] = system: WSU-DLCL2 cell mouse xenograft tumor model; test: Pharmacodynamic experiment in WSU-DLCL2 mouse xenograft tumor model; assay type: in vivo; settings: CB17/SCID mice
Procedure: A certain amount of the compound was weighed, dissolved in 0.1% tween for vortex and ultrasound, and then 0.5% sodium carboxymethyl cellulose (CMC-Na) solution was added to prepare a uniform solution.
(§1) By observing under a microscope, it was confirmed that the cells are in good condition. The cells were transferred to a 15 mL centrifuge tube, which was centrifuged at 1000 rpm for 5 minutes.

[2] = system: WSU-DLCL2 cells; test: Calcein AM proliferation assay, WSU-DLCL2 cells; assay type: cell-based, human; settings: read-out: WSU-DLCL2 proliferation IC50
Procedure: as §1
Gradient dilutions of the compounds in DMSO were performed, and a compound plate with a final concentration of 500-fold was prepared. 1.2 μL of 500× compound was pipetted, transferred to 200 μL medium, and pipetted to mix well to obtain a 3× compound intermediate plate. 50 μL 3× compound is pipetted and added to the cell plate according to the set arrangement.
The cells of the above concentration were inoculated in 96-well plates, 100 μL/well (the number of cells in each well is 10,000). The cell plate was placed in a carbon dioxide incubator for 4 days. The cell plate was taken out. After mixed uniformly, a certain volume of cell suspension was drawn, and stained with Calcein AM. The number of cells in each well was counted with Acumen. According to the number of detected cells, 10,000 cells were re-inoculated in 96-well plates. As above, the compound was added. After placed in a carbon dioxide incubator for 3 days (day 7). The cell plate was taken out again. After mixed uniformly, a certain volume of cell suspension was drawn, stained with Calcein AM. The number of cells in each well was counted with Acumen. The cells were cultured for another 4 days (day 11), and the cell plate was taken out for the third time. After mixed uniformly, a certain volume of cell suspension was drawn, and stained with Calcein AM. The number of cells in each well was counted with Acumen. According to the number of detected cells, 10,000 cells were re-inoculated in 96-well plates. As above, the compound was added. […] After Calcein AM staining, the number of the cells was counted to obtain the final count result. The data of day 14 was processed to obtain the corresponding half-inhibitory concentration (IC50).
Using GraphPad Prism 5 software, a non-linear regression model was used to draw the S-type dose-survival rate curve and to calculate the IC50 value.

[3] = system: Karpas 422 cells; test: Calcein AM proliferation assay, Karpas 422 cells; assay type: cell-based, human; settings: read-out: Karpas422 proliferation IC50
[4] = system: Pfeiffer cells; test: Calcein AM proliferation assay, Pfeiffer cells; assay type: cell-based, human; settings: read-out: Pfeiffer proliferation IC50
[5] = Pharmacokinetics experiment in rats; assay type: in vivo; settings: rat, plasma, male SD rats; for bioavailability: oral 20 mg/kg vs intravenous 4 mg/kg, read-out: Bioavailability (F %); for AUC: read-out: Area under the curve (AUC); for half-life: read-out: Half life (T1/2) (converted); for Cmax: read-out: Blood drug level (Cmax)
Procedure: Male SD rats weighing 200-300 g and 8 weeks old were used as experimental animals. […] The pharmacokinetic behavior of the compound of the present invention in rats was studied, and the pharmacokinetic characteristics thereof were evaluated.
A certain amount of the compound was weighed, dissolved in 0.10% tween for vortex and ultrasound, and then 0.5% sodium carboxymethyl cellulose (CMC-Na) solution was added to prepare a uniform solution.
The above-mentioned compounds were applied intravenously and orally to rats at a dose of 4 mg/kg and a dose of 20 mg/kg, respectively. At 0.083 h, 0.25 h, 0.5 h, 1.0 h, 2.0 h, 4.0 h, 6.0 h, 8.0 h, 12.0 h, and 24.0 h after application, 0.2 mL of blood was collected from the orbit, and placed in an anticoagulant tube, which was centrifuged at 6000 rpm for 10 minutes at 4° C. The plasma was separated and stored at −80° C.

[6] = molecular target: wild-type EZH2 (Homo sapiens, UniProt Q15910); test: Radiometric assay of activity on wild-type PRC2 EZH2
Procedure: 10 microliters (μL) of the compound of the test example and wild-type EZH2 were added to each well. After being incubated at room temperature for 15 minutes, peptides and [3H]-labeled methyl donor S-adenosylmethionine (SAM) were added. After reacting at room temperature for 1 hour (h), cold SAM was added to terminate the reaction. 25 μl reaction solution was transferred to the scintillation plate. After incubating for 1 hour (h) at room temperature, the plate was washed three times with deionized water and 0.1% Tween 20. The value was read with a PerkinElmer liquid scintillation/luminescence counter, and the half inhibitory concentration (IC50) of the compound was calculated with the Prism 5 software (GraphPad Prism 5).

[7] = molecular target: T1, Mutant EZH2 (A677G) (Homo sapiens, UniProt Q15910, A677G); test: AlphaLISA assay on mutant PRC2 complex, EZH2 A677G; assay type: biochemical
T1 construct: purchased BPS 51004
Procedure: Detection Method: AlphaLISA
(§2) Finally, 15 μl detection solution mixture was added under low light, and incubated at room temperature for 60 minutes, and read the value.

[8] = molecular target: T2, Mutant EZH2 (Y641N) (Homo sapiens, UniProt Q15910, Y641N); test: AlphaLISA assay on mutant PRC2 complex, EZH2 Y641N; assay type: biochemical
T2 construct: purchased BPS 51004
Procedure: Detection Method: AlphaLISA
as §2

[9] = molecular target: T3, Mutant EZH2 (Y641F) (Homo sapiens, UniProt Q15910, Y641F); test: AlphaLISA assay on mutant PRC2 complex, EZH2 Y641F; assay type: biochemical
T3 construct: purchased BPS 51004
Procedure: Detection Method: AlphaLISA
as §2

[10] = 150 mg/kg gastric irrigation, 21 days
[11] = Homo sapiens, WSUDLCL2, day 14 data, Calcein AM staining
[12] = Homo sapiens, KARPAS-422, day 14 data, Calcein AM staining
[13] = Homo sapiens, Pfeiffer, day 14 data, Calcein AM staining
[14] = day 14 data, Calcein AM staining

Chain of wild-type EZH2 (Q15910 whole entry): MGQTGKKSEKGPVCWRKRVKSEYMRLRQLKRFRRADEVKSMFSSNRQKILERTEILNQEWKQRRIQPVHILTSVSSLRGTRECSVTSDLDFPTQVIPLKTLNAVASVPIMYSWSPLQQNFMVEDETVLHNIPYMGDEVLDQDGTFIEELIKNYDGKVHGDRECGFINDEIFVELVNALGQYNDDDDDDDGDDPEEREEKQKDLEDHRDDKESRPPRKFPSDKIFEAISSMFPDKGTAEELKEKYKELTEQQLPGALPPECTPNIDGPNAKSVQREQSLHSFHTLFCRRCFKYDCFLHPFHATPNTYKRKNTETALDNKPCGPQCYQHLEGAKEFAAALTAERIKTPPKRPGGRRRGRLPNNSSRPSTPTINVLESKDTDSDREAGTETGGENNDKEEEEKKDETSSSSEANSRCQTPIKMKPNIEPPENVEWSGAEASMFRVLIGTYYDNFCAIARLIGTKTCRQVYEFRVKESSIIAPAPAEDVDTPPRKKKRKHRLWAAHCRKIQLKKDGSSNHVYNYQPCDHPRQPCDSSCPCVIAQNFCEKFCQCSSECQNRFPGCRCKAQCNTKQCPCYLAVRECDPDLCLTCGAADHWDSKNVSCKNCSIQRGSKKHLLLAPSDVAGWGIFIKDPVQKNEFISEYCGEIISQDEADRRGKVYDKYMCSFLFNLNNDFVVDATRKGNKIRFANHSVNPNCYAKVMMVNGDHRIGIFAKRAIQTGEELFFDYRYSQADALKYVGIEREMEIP
Chain of wild-type EZH2 (O75530 whole entry partner): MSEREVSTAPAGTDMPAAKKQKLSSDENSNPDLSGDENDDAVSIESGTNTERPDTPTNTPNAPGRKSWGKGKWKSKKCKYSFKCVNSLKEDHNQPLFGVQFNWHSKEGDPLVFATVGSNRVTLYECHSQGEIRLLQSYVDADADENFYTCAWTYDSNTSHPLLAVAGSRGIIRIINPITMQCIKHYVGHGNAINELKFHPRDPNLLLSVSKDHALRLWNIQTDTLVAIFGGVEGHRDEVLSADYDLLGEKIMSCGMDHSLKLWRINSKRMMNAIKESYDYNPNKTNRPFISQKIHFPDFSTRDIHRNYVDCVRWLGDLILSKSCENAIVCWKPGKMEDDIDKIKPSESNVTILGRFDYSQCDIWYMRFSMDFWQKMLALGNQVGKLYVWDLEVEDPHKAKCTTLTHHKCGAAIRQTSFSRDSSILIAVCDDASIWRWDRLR
Chain of wild-type EZH2 (Q15022 whole entry partner): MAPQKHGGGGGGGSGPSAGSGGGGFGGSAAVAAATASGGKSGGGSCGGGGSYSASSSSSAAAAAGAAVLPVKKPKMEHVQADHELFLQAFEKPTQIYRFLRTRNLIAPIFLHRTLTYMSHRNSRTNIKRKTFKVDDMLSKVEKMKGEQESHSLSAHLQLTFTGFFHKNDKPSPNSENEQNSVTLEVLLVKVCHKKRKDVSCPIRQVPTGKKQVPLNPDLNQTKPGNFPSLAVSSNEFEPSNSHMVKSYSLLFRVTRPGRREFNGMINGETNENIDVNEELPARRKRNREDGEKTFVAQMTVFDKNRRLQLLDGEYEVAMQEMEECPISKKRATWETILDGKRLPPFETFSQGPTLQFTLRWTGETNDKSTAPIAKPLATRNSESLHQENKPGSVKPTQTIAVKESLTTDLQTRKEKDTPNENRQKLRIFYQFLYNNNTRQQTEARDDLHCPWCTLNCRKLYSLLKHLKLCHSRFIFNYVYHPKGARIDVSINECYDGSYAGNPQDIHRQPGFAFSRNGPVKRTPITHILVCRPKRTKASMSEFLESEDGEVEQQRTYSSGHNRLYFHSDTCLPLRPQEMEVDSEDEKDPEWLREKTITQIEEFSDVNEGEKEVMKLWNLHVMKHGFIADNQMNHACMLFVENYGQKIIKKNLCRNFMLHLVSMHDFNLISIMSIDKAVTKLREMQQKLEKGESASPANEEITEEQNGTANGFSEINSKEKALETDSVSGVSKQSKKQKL
Chain of wild-type EZH2 (Q09028 whole entry partner): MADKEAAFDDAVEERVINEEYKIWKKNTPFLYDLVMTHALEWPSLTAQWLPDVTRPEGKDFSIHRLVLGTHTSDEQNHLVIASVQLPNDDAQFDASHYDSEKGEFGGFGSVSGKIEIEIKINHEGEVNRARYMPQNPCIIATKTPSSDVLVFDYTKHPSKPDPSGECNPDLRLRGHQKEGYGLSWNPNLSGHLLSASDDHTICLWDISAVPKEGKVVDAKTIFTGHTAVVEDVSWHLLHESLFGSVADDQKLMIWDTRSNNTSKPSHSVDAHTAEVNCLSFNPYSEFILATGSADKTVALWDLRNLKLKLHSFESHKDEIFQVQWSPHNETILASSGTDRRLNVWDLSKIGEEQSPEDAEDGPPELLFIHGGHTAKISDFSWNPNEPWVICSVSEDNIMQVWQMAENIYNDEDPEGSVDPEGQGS
T3 sequence (Q15910 whole entry Y641F): as the sequence (Q15910 whole entry) above, with Y641F counted along it
T3 sequence (O75530 whole entry partner): as the sequence (O75530 whole entry partner) above
T3 sequence (Q15022 whole entry partner): as the sequence (Q15022 whole entry partner) above
T3 sequence (Q09028 whole entry partner): as the sequence (Q09028 whole entry partner) above
T3 sequence (Q6ZN18 whole entry partner): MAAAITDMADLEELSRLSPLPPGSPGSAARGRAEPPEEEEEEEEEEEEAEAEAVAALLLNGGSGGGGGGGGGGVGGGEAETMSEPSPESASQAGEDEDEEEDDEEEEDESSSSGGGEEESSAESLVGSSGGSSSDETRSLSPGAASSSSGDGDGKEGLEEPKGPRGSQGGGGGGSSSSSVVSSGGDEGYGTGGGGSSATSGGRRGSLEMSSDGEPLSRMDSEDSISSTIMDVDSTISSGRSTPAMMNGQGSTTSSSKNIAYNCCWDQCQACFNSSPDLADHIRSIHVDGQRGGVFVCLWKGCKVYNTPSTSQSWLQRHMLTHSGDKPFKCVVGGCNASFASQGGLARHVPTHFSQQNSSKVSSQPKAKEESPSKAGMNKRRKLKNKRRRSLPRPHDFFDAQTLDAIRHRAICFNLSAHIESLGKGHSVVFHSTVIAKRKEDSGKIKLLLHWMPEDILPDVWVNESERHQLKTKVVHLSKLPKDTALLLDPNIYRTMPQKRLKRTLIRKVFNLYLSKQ
T2 sequence (Q15910 whole entry Y641N): as the sequence (Q15910 whole entry) above, with Y641N counted along it
T2 sequence (O75530 whole entry partner): as the sequence (O75530 whole entry partner) above
T2 sequence (Q15022 whole entry partner): as the sequence (Q15022 whole entry partner) above
T2 sequence (Q09028 whole entry partner): as the sequence (Q09028 whole entry partner) above
T2 sequence (Q6ZN18 whole entry partner): as the sequence (Q6ZN18 whole entry partner) above
T1 sequence (Q15910 whole entry A677G): as the sequence (Q15910 whole entry) above, with A677G counted along it
T1 sequence (O75530 whole entry partner): as the sequence (O75530 whole entry partner) above
T1 sequence (Q15022 whole entry partner): as the sequence (Q15022 whole entry partner) above
T1 sequence (Q09028 whole entry partner): as the sequence (Q09028 whole entry partner) above
T1 sequence (Q6ZN18 whole entry partner): as the sequence (Q6ZN18 whole entry partner) above

Question: With `CCN(c1cc(-c2ccc3c(c2)CCN3C2CCOCC2)cc(C(=O)NCc2c(C)cc(C)[nH]c2=O)c1C)C1CCOCC1` [Compound 29, N-((4,6-dimethyl-2-oxo-1,2-dihydropyridin-3-yl)methyl)-3-(ethyl (tetrahydro-2H-pyran-4-yl)amino)-2-methyl-5-(1-(1-tetrahydro-2H-pyran-4-yl)indolin-5-yl)benzamide] as the compound, how does the tumor growth inhibition [1, 10] read?
Answer: Its tumor growth inhibition is 78%.

Question: And the IC50 [2, 11]?
Answer: Its IC50 is 2.18 nM.

Question: And the IC50 [3, 12]?
Answer: The IC50 was 1.99 nM.

Question: What about the IC50 [4, 13] of the same compound?
Answer: Its IC50 is 1.42 nM.

Question: For `CCN(c1cc(N2Cc3cn(C)cc3C2)cc(C(=O)NCc2c(C)cc(C)[nH]c2=O)c1C)C1CCOCC1` [Compound 21, N-((4,6-dimethyl-2-oxo-1,2-dihydropyridin-3-yl)methyl)-3-(ethyl (tetrahydro-2H-pyran-4-yl)amino)-2-methyl-5-(5-methyl-3,5-dihydropyrrolo[3,4-c]pyrrole-2(1H)-yl)benzamide], which tumor growth inhibition [1, 10] is on record?
Answer: The tumor growth inhibition was 90%.

Question: And the IC50 [2, 11]?
Answer: The IC50 was 9.38 nM.

Question: And the bioavailability [5]?
Answer: Its bioavailability is 26.8%.

Question: What about the AUC ([5]; intravenous dosing 4 mg/kg) of the same compound?
Answer: The AUC was 932 ng·h/mL.

Question: What about the half-life ([5]; intravenous dosing 4 mg/kg) of the same compound?
Answer: The half-life was 1.72 h.

Question: What about the AUC ([5]; oral dosing 20 mg/kg) of the same compound?
Answer: Its AUC is 1250 ng·h/mL.

Question: What about the Cmax ([5]; oral dosing 20 mg/kg) of the same compound?
Answer: Its Cmax is 426 ng/mL.

Question: What about the IC50 [6] of the same compound?
Answer: The IC50 was 0.9 nM.

Question: What about the IC50 [3, 12] of the same compound?
Answer: Its IC50 is 8.15 nM.

Question: What about the IC50 [4, 13] of the same compound?
Answer: The IC50 was 7.16 nM.

Question: Which IC50 [2, 11] does the source give for `CCN(c1cc(N2Cc3ccc(N4CCOCC4)cc3C2)cc(C(=O)NCc2c(C)cc(C)[nH]c2=O)c1C)C1CCOCC1` [Compound 18, N-((4,6-dimethyl-2-oxo-1,2-dihydropyridin-3-yl)methyl)-3-(ethyl (tetrahydro-2H-pyran-4-yl)amino)-2-methyl-5-(5-morpholinoisoindolin-2-yl) benzamide] here?
Answer: The IC50 was 2.89 nM.

Question: And the IC50 [7]?
Answer: The IC50 was 0.64 nM.

Question: What about the bioavailability [5] of the same compound?
Answer: The bioavailability was 34.3%.

Question: And the AUC ([5]; intravenous dosing 4 mg/kg)?
Answer: Its AUC is 969 ng·h/mL.

Question: What about the half-life ([5]; intravenous dosing 4 mg/kg) of the same compound?
Answer: The half-life was 1.57 h.

Question: What about the AUC ([5]; oral dosing 20 mg/kg) of the same compound?
Answer: The AUC was 1660 ng·h/mL.

Question: And the Cmax ([5]; oral dosing 20 mg/kg)?
Answer: The Cmax was 457 ng/mL.

Question: What about the IC50 [6] of the same compound?
Answer: Its IC50 is 0.8 nM.

Question: What about the IC50 [8] of the same compound?
Answer: Its IC50 is 0.5 nM.

Question: What about the IC50 [9] of the same compound?
Answer: Its IC50 is 0.71 nM.

Question: What about the IC50 [3, 12] of the same compound?
Answer: Its IC50 is 2.34 nM.

Question: What about the IC50 [4, 13] of the same compound?
Answer: Its IC50 is 1.86 nM.

Question: With `CCN(c1cc(N2Cc3ccccc3C2)cc(C(=O)NCc2c(C)cc(C)[nH]c2=O)c1C)C1CCOCC1` [Compound 15, N-4,6-((dimethyl-2-oxo-1,2-dihydropyridin-3-yl)methyl)-3-(ethyl (tetrahydro-2H-pyran-4-yl)amino)-5-(5-isoindolin-2-yl)-2-methylbenzamide] as the compound, how does the IC50 [2, 11] read?
Answer: The IC50 was 2.46 nM.

Question: And the IC50 [7]?
Answer: Its IC50 is 0.24 nM.

Question: What about the bioavailability [5] of the same compound?
Answer: The bioavailability was 34.5%.

Question: And the AUC ([5]; intravenous dosing 4 mg/kg)?
Answer: The AUC was 893 ng·h/mL.

Question: And the half-life ([5]; intravenous dosing 4 mg/kg)?
Answer: Its half-life is 1.42 h.

Question: What about the AUC ([5]; oral dosing 20 mg/kg) of the same compound?
Answer: Its AUC is 1540 ng·h/mL.

Question: What about the Cmax ([5]; oral dosing 20 mg/kg) of the same compound?
Answer: Its Cmax is 500 ng/mL.

Question: What about the IC50 [8] of the same compound?
Answer: Its IC50 is 0.1 nM.

Question: And the IC50 [9]?
Answer: The IC50 was 0.78 nM.

Question: And the IC50 [3, 12]?
Answer: The IC50 was 2.15 nM.

Question: What about the IC50 [4, 13] of the same compound?
Answer: Its IC50 is 0.93 nM.

Question: For `CCN(c1cc(N2Cc3ccc(NC4CCOCC4)cc3C2)cc(C(=O)NCc2c(C)cc(C)[nH]c2=O)c1C)C1CCOCC1` [Compound 23], which IC50 [2, 11] is on record?
Answer: The IC50 was 6.48 nM.

Question: And the IC50 [7]?
Answer: The IC50 was 0.66 nM.

Question: What about the IC50 [6] of the same compound?
Answer: The IC50 was 0.89 nM.

Question: What about the IC50 [8] of the same compound?
Answer: The IC50 was 0.5 nM.

Question: And the IC50 [3, 12]?
Answer: Its IC50 is 4.09 nM.

Question: And the IC50 [4, 13]?
Answer: Its IC50 is 4.36 nM.

Question: What does the source list for `CCN(c1cc(-c2ccc3c(c2)CCC3N2CCOCC2)c(Cl)c(C(=O)NCc2c(OC)cc(C)[nH]c2=O)c1C)C1CCOCC1` (centres unmarked) [Compound 12, 2-chloro-5-(ethyl(tetrahydro-2H-pyran-4-yl)amino)-N-((4-methoxy-6-methyl-2-carbonyl-1,2-dihydropyridin-3-yl)methyl)-6-methyl-3-(1-morpholino-2,3-dihydro-1H-inden-5-yl)benzamide]?
Answer: tumor growth inhibition [1, 10]: 85%; IC50 ([2]; Homo sapiens, WSUDLCL2, […]): 2.36 nM; bioavailability [5]: 27.4%; AUC ([5]; intravenous dosing 4 mg/kg): 956 ng·h/mL; half-life ([5]; intravenous dosing 4 mg/kg): 1.42 h; AUC ([5]; oral dosing 20 mg/kg): 1310 ng·h/mL; Cmax ([5]; oral dosing 20 mg/kg): 480 ng/mL; IC50 ([3]; Homo sapiens, KARPAS-422, […]): 1.84 nM; IC50 ([4]; Homo sapiens, Pfeiffer, […]): 1.69 nM

Question: What does the source list for `CCN(c1cc(N2CCc3ccccc3C2)cc(C(=O)NCc2c(C)cc(C)[nH]c2=O)c1C)C1CCOCC1` [Compound 16, 5-(3,4-dihydroisoquinoline-2(1H)-yl)-N-((4,6-dimethyl-2-oxo-1,2-dihydropyridin-3-yl)methyl)-3-(ethyl(tetrahydro-2H-pyran-4-yl)amino)-2-methylbenzamide]?
Answer: IC50 [2, 11]: 5.12 nM; IC50 [7]: 0.74 nM; bioavailability [5]: 24.4%; AUC ([5]; intravenous dosing 4 mg/kg): 975 ng·h/mL; half-life ([5]; intravenous dosing 4 mg/kg): 1.87 h; AUC ([5]; oral dosing 20 mg/kg): 1190 ng·h/mL; Cmax ([5]; oral dosing 20 mg/kg): 433 ng/mL; IC50 [6]: 0.95 nM; IC50 [8]: 0.61 nM; IC50 [9]: 0.82 nM; IC50 [3, 12]: 3.34 nM; IC50 [4, 13]: 1.87 nM

Question: For `CC[C@H](C)n1cc(C)c2c(C(=O)NCc3c(C)cc(C)[nH]c3=O)cc(-c3ccc(N4CCNCC4)nc3)cc21` [GSK126, reference compound], which tumor growth inhibition ([1]; 50 mg/kg abdominal, once a day for 21 days) is on record?
Answer: The tumor growth inhibition was 61%.

Question: And the IC50 [2, 14]?
Answer: The IC50 was 34.1 nM.

Question: And the IC50 [3, 14]?
Answer: The IC50 was 20.3 nM.

Question: And the IC50 [4, 14]?
Answer: Its IC50 is 12.2 nM.
